In experiment [1] the test system is BZD (central). Nature of the experiment: Receptor binding screen, [^3H]flunitrazepam. The note with it: 10 uM Concentration of Compound I-1-Z. Details: species or system rat.
For experiment [2], the system named is P2Y. Nature of the experiment: Receptor binding screen, [^35S]dATPαS. Details: species or system rat. The following applies: 10 uM Concentration of Compound I-1-Z.
Experiment [3] has as its target T1, rat lung SSAO (Rattus norvegicus, UniProt O08590).
T1 construct: rat lung or human umbilical cord homogenates were prepared by chopping the freshly removed tissue; from tissue; host or cells: rat lung homogenate (1000 g supernatant)
Nature of the experiment: ED50 for rat lung SSAO after oral administration. The following applies: lungs excised 1, 3, 6 or 24 h later, FIG. 11, read-out: ED50 for inhibition of rat lung SSAO activity. The format is in vivo, Sprague Dawley rats. How it is done: Groups of five Sprague Dawley rats were orally administered the indicated doses of compound I-1-Z. At 1, 3, 6 or 24 h later, the animals were sacrificed, lungs excised and SSAO activity in lung homogenates determined. Results are presented as percent inhibition of SSAO activity relative to animals that were administered PBS.

The target of experiment [4] is T2, κ (KOP) (Cavia porcellus, UniProt P41144).
T2 construct: cerebellum; from tissue; host or cells: guinea-pig cerebellum
T2 sequence (P41144 whole entry): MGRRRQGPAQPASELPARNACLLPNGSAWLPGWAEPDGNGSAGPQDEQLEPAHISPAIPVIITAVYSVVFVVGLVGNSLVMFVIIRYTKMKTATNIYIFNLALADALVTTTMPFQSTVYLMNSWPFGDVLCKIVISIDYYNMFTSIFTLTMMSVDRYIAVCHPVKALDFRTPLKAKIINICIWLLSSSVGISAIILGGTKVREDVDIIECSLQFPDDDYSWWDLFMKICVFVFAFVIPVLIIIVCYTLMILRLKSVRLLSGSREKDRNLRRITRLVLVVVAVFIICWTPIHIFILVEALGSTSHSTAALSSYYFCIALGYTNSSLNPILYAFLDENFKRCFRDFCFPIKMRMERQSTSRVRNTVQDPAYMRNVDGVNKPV
In words: Receptor binding screen, [^3H]U 69593, guinea-pig cerebellum. The following applies: 10 uM Concentration of Compound I-1-Z; read-out: Mean Value, percent inhibition of control specific binding: κ (KOP). How it is done: (§1) For Table 4 below, the specific ligand binding to the receptors is defined as the difference between the total binding and the nonspecific binding determined in the presence of an excess of unlabelled ligand. The results are expressed as a percent inhibition of control specific binding obtained in the presence of Compound I-1-Z. The IC50 values (concentration causing a half-maximal inhibition of control specific binding) and Hill coefficients (nH) were determined by non-linear regression analysis of the competition curves using Hill equation curve fitting. The inhibition constants (Ki) were calculated from the Cheng Prusoff equation (Ki=IC50/(1+(L/KD)), where L=concentration of radioligand in the assay, and KD=affinity of the radioligand for the receptor). In each experiment, the respective reference compound was tested concurrently with Compound I-1-Z in order to assess the assay suitability.

Experiment [5] deals with T3, D1 (h) (Homo sapiens, UniProt P21728).
T3 construct: expressed in transfected cells; host or cells: CHO cells
T3 sequence (P21728 whole entry): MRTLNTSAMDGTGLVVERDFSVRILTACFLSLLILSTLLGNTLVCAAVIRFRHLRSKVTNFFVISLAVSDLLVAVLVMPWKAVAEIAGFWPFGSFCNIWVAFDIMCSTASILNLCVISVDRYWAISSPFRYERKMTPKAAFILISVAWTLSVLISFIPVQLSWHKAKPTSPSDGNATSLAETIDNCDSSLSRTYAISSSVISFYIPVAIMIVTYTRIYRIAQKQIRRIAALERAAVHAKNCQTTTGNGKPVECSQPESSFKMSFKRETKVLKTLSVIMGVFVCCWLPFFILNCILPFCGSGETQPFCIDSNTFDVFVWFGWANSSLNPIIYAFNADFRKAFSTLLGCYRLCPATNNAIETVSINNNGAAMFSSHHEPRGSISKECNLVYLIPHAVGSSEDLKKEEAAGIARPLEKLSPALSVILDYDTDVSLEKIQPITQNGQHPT
Nature of the experiment: Receptor binding screen, [^3H]SCH 23390. The following applies: 10 uM Concentration of Compound I-1-Z; read-out: Mean Value, percent inhibition of control specific binding: D1 (h).

For experiment [6], the system named is PCP. In words: Receptor binding screen, [^3H]TCP. Details: species or system rat. The note with it: 10 uM Concentration of Compound I-1-Z.
For experiment [7], the target named is T4, MT1 (h) (Homo sapiens, UniProt P48039).
T4 construct: expressed in transfected cells; host or cells: CHO cells
T4 sequence (P48039 whole entry): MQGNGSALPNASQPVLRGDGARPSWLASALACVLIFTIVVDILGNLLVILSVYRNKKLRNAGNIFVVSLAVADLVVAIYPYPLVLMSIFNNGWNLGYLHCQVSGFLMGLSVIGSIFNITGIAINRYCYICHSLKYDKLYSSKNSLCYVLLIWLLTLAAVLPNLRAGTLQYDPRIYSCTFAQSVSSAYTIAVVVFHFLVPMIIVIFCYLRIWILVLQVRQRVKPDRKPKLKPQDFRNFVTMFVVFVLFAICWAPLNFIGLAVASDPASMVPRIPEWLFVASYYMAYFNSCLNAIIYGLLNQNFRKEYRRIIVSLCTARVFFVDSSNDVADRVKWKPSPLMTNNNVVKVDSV
In words: Receptor binding screen, [^125I]iodomelatonin. The note with it: 10 uM Concentration of Compound I-1-Z; read-out: Mean Value, percent inhibition of control specific binding: MT1 (h).

Experiment [8] has as its system SK^+Ca channel. Nature of the experiment: Receptor binding screen, [^125I]apamin. Details: species or system rat. The note with it: 10 uM Concentration of Compound I-1-Z. How it is done: as §1
The target in experiment [9] is T5, 5-HT2C (h) (Homo sapiens, UniProt P28335).
T5 construct: expressed in transfected cells; host or cells: CHO cells
T5 sequence (P28335 33-458): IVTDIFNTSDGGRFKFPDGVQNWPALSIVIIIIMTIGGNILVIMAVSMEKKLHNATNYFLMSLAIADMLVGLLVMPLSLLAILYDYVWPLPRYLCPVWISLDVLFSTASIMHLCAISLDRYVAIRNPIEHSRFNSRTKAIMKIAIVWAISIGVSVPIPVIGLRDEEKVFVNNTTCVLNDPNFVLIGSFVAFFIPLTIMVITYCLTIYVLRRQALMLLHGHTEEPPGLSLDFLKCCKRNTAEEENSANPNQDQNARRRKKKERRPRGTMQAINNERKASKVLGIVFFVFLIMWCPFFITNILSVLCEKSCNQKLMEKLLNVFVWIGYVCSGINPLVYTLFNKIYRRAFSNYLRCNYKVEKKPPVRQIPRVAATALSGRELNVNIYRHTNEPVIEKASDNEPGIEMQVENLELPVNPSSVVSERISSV
In words: Receptor binding screen, [^3H]mesulergine. The note with it: 10 uM Concentration of Compound I-1-Z; read-out: Mean Value, percent inhibition of control specific binding: 5-HT2C (h).

Experiment [10] has as its system sst (non-selective). In words: Receptor binding screen, [^125I]Tyr^11-somatostatin, AtT-20 cells. The following applies: 10 uM Concentration of Compound I-1-Z. How it is done:
as §1

Experiment [11] concerns the target T6, GAL2 (h) (Homo sapiens, UniProt O43603).
T6 construct: expressed in transfected cells; host or cells: CHO cells
In words: Receptor binding screen, [^125I]galanin. The following applies: 10 uM Concentration of Compound I-1-Z; read-out: Mean Value, percent inhibition of control specific binding: GAL2 (h).

In experiment [12] the target is T7, DA transporter (h) (Homo sapiens, UniProt Q01959).
T7 construct: expressed in transfected cells; host or cells: CHO cells
T7 sequence (Q01959 whole entry): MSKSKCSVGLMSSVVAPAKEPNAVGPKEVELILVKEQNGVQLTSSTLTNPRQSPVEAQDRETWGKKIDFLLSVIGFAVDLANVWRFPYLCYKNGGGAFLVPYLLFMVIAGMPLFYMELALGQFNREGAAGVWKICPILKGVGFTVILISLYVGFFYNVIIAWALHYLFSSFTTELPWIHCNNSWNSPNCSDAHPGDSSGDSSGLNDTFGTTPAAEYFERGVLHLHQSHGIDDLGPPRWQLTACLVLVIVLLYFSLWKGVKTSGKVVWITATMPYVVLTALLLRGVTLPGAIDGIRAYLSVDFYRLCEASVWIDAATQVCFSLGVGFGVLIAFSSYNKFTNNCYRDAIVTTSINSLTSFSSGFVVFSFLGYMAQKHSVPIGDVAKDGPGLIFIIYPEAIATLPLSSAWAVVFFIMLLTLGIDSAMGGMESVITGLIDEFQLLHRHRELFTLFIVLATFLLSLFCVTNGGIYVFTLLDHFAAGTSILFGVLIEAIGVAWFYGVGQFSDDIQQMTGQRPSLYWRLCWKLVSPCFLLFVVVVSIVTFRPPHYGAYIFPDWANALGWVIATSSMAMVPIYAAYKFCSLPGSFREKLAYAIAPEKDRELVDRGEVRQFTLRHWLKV
Nature of the experiment: Receptor binding screen, [^3H]BTCP. The following applies: 10 uM Concentration of Compound I-1-Z; read-out: Mean Value, percent inhibition of control specific binding: DA transporter (h).

Experiment [13] relates to σ (non-selective). Nature of the experiment: Receptor binding screen, [^3H]DTG. Details: species or system rat. The note with it: 10 uM Concentration of Compound I-1-Z. How it is done:
as §1

Experiment [14] has as its target T8, CCKA (h) (CCK1) (Homo sapiens, UniProt P32238).
T8 construct: expressed in transfected cells; host or cells: CHO cells
Nature of the experiment: Receptor binding screen, [^125I]CCK-8. The note with it: 10 uM Concentration of Compound I-1-Z; read-out: Mean Value, percent inhibition of control specific binding: CCKA (h) (CCK1).

The test system of experiment [15] is GABA (non-selective). In words: Receptor binding screen, [^3H]GABA. Details: species or system rat. The note with it: 10 uM Concentration of Compound I-1-Z. How it is done: as §1
For experiment [16], the target named is T9, H1 (h) (Homo sapiens, UniProt P35367).
T9 construct: expressed in transfected cells; host or cells: HEK-293 cells
T9 sequence (P35367 whole entry): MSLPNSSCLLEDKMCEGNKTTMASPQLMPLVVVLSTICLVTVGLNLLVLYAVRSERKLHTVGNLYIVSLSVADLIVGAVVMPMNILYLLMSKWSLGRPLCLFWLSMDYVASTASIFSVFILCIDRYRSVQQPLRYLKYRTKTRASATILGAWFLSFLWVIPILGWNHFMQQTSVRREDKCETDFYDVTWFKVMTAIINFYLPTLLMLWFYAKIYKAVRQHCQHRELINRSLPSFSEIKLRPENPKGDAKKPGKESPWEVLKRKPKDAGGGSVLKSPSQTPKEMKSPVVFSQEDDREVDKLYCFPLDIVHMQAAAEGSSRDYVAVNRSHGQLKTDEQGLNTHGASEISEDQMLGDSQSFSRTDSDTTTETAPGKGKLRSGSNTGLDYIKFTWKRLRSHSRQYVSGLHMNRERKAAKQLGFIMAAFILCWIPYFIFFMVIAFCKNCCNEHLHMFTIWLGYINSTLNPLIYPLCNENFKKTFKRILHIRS
Nature of the experiment: Receptor binding screen, [^3H]pyrilamine. The following applies: 10 uM Concentration of Compound I-1-Z; read-out: Mean Value, percent inhibition of control specific binding: H1 (h).

Experiment [17] relates to P2X. In words: Receptor binding screen, [^3H]α,β-MeATP, rat urinary bladder. The note with it: 10 uM Concentration of Compound I-1-Z.
For experiment [18], the target named is T10, GAL1 (h) (Homo sapiens, UniProt P47211).
T10 construct: expressed in transfected cells; host or cells: HEK-293 cells
T10 sequence (P47211 whole entry): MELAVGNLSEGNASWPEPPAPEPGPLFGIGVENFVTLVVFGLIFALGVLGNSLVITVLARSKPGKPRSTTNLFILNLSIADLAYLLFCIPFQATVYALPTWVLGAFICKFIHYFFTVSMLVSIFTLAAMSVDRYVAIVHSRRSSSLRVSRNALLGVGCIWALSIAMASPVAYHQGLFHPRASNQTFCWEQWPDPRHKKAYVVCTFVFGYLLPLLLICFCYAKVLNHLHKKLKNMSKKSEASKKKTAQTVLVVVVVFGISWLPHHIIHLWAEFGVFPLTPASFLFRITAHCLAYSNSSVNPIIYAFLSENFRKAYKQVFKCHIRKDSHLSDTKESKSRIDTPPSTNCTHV
In words: Receptor binding screen, [^125I]galanin. The following applies: 10 uM Concentration of Compound I-1-Z; read-out: Mean Value, percent inhibition of control specific binding: GAL1 (h).

Experiment [19] addresses T11, D2S (h) (Homo sapiens, UniProt P14416).
T11 construct: expressed in transfected cells; host or cells: HEK-293 cells
In words: Receptor binding screen, [^3H]spiperone. The note with it: 10 uM Concentration of Compound I-1-Z; read-out: Mean Value, percent inhibition of control specific binding: D2S (h).

Molecules are shown by their SMILES.

T6 sequence (O43603 whole entry): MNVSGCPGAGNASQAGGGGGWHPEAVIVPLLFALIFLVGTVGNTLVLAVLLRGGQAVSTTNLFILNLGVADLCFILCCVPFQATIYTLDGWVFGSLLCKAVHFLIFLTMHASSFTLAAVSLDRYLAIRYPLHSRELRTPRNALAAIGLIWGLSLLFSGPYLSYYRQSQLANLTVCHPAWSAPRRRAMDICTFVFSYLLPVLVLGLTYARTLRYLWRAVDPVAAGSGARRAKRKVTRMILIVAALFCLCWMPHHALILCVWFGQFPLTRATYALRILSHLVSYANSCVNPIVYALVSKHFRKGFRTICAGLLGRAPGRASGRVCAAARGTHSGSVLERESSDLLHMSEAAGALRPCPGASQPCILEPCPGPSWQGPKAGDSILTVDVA
T1 sequence (O08590 whole entry): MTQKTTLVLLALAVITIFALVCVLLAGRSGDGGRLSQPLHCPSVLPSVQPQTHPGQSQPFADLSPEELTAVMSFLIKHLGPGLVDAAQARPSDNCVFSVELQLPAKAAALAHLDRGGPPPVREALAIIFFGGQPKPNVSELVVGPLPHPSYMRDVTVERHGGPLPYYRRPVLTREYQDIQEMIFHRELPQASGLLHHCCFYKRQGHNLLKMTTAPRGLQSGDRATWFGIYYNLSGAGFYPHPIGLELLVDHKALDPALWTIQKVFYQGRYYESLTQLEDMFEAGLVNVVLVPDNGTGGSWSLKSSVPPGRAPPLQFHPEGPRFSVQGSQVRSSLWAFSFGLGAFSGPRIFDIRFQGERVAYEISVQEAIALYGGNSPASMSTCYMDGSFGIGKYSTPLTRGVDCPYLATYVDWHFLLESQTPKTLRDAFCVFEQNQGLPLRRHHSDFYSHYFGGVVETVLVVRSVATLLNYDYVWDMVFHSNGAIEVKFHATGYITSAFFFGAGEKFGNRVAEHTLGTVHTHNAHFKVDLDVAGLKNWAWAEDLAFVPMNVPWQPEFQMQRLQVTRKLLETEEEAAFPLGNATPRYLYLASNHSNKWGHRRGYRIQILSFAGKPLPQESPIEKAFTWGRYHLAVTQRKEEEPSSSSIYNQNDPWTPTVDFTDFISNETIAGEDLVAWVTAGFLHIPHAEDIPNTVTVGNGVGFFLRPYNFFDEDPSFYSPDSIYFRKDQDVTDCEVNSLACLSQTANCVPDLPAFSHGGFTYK
T11 sequence (P14416 1-414 isoform P14416-2): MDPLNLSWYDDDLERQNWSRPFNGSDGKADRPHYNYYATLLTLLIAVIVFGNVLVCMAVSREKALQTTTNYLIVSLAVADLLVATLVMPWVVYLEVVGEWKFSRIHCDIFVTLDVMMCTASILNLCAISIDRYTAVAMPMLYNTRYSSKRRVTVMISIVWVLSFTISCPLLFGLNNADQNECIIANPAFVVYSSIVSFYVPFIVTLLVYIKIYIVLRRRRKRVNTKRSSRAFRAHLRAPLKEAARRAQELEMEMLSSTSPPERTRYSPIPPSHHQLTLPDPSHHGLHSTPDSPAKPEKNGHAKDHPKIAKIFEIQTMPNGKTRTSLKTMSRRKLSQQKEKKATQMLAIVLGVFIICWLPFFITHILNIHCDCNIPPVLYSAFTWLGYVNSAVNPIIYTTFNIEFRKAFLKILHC

With `COc1ccc(C/C(=C/F)CN)cc1.Cl` [Compound I-1-Z, (Z)-3-Fluoro-2-(4-methoxybenzyl)-allylamine hydrochloride], the “Mean Value, percent inhibition of control specific binding: BZD (central)” value in [1] came out at 14%. For the same molecule, the “Mean Value, percent inhibition of control specific binding: P2Y” value in experiment [2] was −1%. The ED50 in experiment [3] lay in the range of 0.1 to 1 mg/kg. The inhibition at 10 µM in [4] was -18%; in [5] it was -2%; in [7], 0%; in experiment [9] it was 21%; in [11] it was 12%; in [12] it was 38%. The inhibition at 10 µM in experiment [14] was -13%; in experiment [16] it was 3%; in experiment [18] it was 0%; in [19], -4%. Moreover, the “Mean Value, percent inhibition of control specific binding: PCP” value in experiment [6] is −12%. Besides, the “Mean Value, percent inhibition of control specific binding: SK^+Ca channel” value in experiment [8] amounted to 4%. Also, the “Mean Value, percent inhibition of control specific binding: sst (non-selective)” value in [10] is listed as −4%. The “Mean Value, percent inhibition of control specific binding: σ (non-selective)” value in experiment [13] came to 24%. Also, the “Mean Value, percent inhibition of control specific binding: GABA (non-selective)” value in [15] is on record as −19%. Also, the “Mean Value, percent inhibition of control specific binding: P2X” value in experiment [17] is −2%.

The values above are taken from US20110269811A1, “INHIBITORS OF SEMICARBAZIDE-SENSITIVE AMINE OXIDASE (SSAO) AND VAP-1 MEDIATED ADHESION USEFUL FOR TREATMENT AND PREVENTION OF DISEASES” (priority 2006, published 2011).
